Assay results: US7612064B2, “Sulfopyrroles” (Takeda Pharmaceutical Company Limited, priority 2003, dated 2009)

Key:
[1] = Hoechst 33342 nuclear staining; assay type: cell-based; conditions: for Hoechst 33342 nuclear staining score, H460: H460 cells; for Hoechst 33342 nuclear staining score, HeLa: HeLa cells; for Hoechst 33342 nuclear staining score, Jily: Jily cells; for Hoechst 33342 nuclear staining score, Jurkat: Jurkat cells; for Hoechst 33342 nuclear staining score, MRC5: MRC5 cells;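 for all read-outs here: apoptotic nuclei scored 0 none 1 weak under 50% of cells 2 strong over 50% of cells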
Method in brief: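 After a further 30 min incubation, plates were inspected on a standard inverted fluorescence microscope. The fraction of apoptotic nuclei and other apoptosis-specific morphology were scored as 0 for no activity, 1 for weak activity in less than 50% of the cells, and 2 for strong activity in more than 50% of the cells.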

[2] = system: Jurkat; assay: MTS proliferation assay; assay type: cell-based, human; conditions: 72 h
Method in brief: (§1)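 Cells were exposed for 72 h under culture conditions to test compounds at final concentrations of 10, 3, 1 and 0.3 μM, added in complete medium with at most 5% DMSO. MTS reagent was then added for a further 3 h, and absorbance was read at 492 nm.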

[3] = system: HeLa; assay: MTS proliferation assay; assay type: cell-based, human; conditions: 72 h
Method in brief: as §1

[4] = system: MRC5; assay: MTS proliferation assay; assay type: cell-based; conditions: MRC5, 72 h
Method in brief: as §1

[5] = system: Jily; assay: MTS proliferation assay; assay type: cell-based; conditions: 72 h
Method in brief: as §1

SMILES	Hoechst 33342 nuclear staining score, H460 ([1]; conc 0.1)	Hoechst 33342 nuclear staining score, H460 ([1]; conc 0.3)	Hoechst 33342 nuclear staining score, H460 ([1]; conc 1)	Hoechst 33342 nuclear staining score, H460 ([1]; conc 3)	Hoechst 33342 nuclear staining score, HeLa ([1]; conc 0.1)	Hoechst 33342 nuclear staining score, HeLa ([1]; conc 0.3)	Hoechst 33342 nuclear staining score, HeLa ([1]; conc 1)	Hoechst 33342 nuclear staining score, HeLa ([1]; conc 3)	Hoechst 33342 nuclear staining score, Jily ([1]; conc 0.1)	Hoechst 33342 nuclear staining score, Jily ([1]; conc 0.3)	Hoechst 33342 nuclear staining score, Jily ([1]; conc 1)	Hoechst 33342 nuclear staining score, Jily ([1]; conc 3)	Hoechst 33342 nuclear staining score, Jurkat ([1]; conc 0.1)	Hoechst 33342 nuclear staining score, Jurkat ([1]; conc 0.3)	Hoechst 33342 nuclear staining score, Jurkat ([1]; conc 1)	Hoechst 33342 nuclear staining score, Jurkat ([1]; conc 3)	Hoechst 33342 nuclear staining score, MRC5 ([1]; conc 0.1)	Hoechst 33342 nuclear staining score, MRC5 ([1]; conc 0.3)	Hoechst 33342 nuclear staining score, MRC5 ([1]; conc 1)	Hoechst 33342 nuclear staining score, MRC5 ([1]; conc 3)	also measured
COc1cc(-c2cc(-c3cccnc3)cn2S(=O)(=O)c2ccc(Cl)cc2)cc(OC)c1OC [Example 81]	0	0	0	2 (strong activity comprising more than 50% of the cells)	0	0	0	1 (weak activity comprising less than 50% of the cells)	0	0	0	1 (weak activity comprising less than 50% of the cells)	0	0	0	2 (strong activity comprising more than 50% of the cells)	0	0	0	0	Hoechst 33342 nuclear staining score, PBLs ([1]; conc 0.1): 0; Hoechst 33342 nuclear staining score, PBLs ([1]; conc 0.3): 0; Hoechst 33342 nuclear staining score, PBLs ([1]; conc 1): 0; Hoechst 33342 nuclear staining score, PBLs ([1]; conc 3): 0; IC50 [2]: > 1 µM; IC50 [3]: > 1 µM; IC50 [4]: > 1 µM; IC50 [5]: > 1 µM
COc1cc(-c2cc(-c3cccnc3)cn2S(=O)(=O)c2ccccc2Cl)cc(OC)c1OC [Example 84]	0	0	0	0	0	0	0	0	0	0	0	0	0	0	0	0	0	0	0	0	Hoechst 33342 nuclear staining score, PBLs ([1]; conc 0.1): 0; Hoechst 33342 nuclear staining score, PBLs ([1]; conc 0.3): 0; Hoechst 33342 nuclear staining score, PBLs ([1]; conc 1): 0; Hoechst 33342 nuclear staining score, PBLs ([1]; conc 3): 0; IC50 [2]: > 1 µM; IC50 [3]: > 1 µM; IC50 [4]: > 1 µM; IC50 [5]: > 1 µM
COc1ccc(S(=O)(=O)n2cc(-c3cncc(C(N)=O)c3)cc2-c2cc(OC)ccc2OC)cc1 [Example 105]	0	0	0	2 (strong activity comprising more than 50% of the cells)	0	0	0	2 (strong activity comprising more than 50% of the cells)	0	0	2 (strong activity comprising more than 50% of the cells)	2 (strong activity comprising more than 50% of the cells)	0	0	2 (strong activity comprising more than 50% of the cells)	2 (strong activity comprising more than 50% of the cells)	0	0	0	1 (weak activity comprising less than 50% of the cells)	Hoechst 33342 nuclear staining score, PBLs ([1]; conc 0.1): 0; Hoechst 33342 nuclear staining score, PBLs ([1]; conc 0.3): 0; Hoechst 33342 nuclear staining score, PBLs ([1]; conc 1): 0; Hoechst 33342 nuclear staining score, PBLs ([1]; conc 3): 0; IC50 [2]: < 1 µM; IC50 [3]: > 1 µM; IC50 [4]: > 1 µM; IC50 [5]: < 1 µM
COc1ccc(S(=O)(=O)n2cc(CNc3ccc(N4CCOCC4)cc3)cc2-c2c(OC)cc(OC)cc2OC)cc1 [Example 99]	0	0	2 (strong activity comprising more than 50% of the cells)	2 (strong activity comprising more than 50% of the cells)	0	0	2 (strong activity comprising more than 50% of the cells)	2 (strong activity comprising more than 50% of the cells)	0	0	2 (strong activity comprising more than 50% of the cells)	2 (strong activity comprising more than 50% of the cells)	0	0	2 (strong activity comprising more than 50% of the cells)	2 (strong activity comprising more than 50% of the cells)	0	0	1 (weak activity comprising less than 50% of the cells)	1 (weak activity comprising less than 50% of the cells)	Hoechst 33342 nuclear staining score, PBLs ([1]; conc 0.1): 0; Hoechst 33342 nuclear staining score, PBLs ([1]; conc 0.3): 0; Hoechst 33342 nuclear staining score, PBLs ([1]; conc 1): 0; Hoechst 33342 nuclear staining score, PBLs ([1]; conc 3): 0; IC50 [2]: < 1 µM; IC50 [3]: < 1 µM; IC50 [4]: > 1 µM; IC50 [5]: < 1 µM
COc1cc(-c2cc(-c3cccnc3)cn2S(=O)(=O)c2ccc(F)cc2)cc(OC)c1OC [Example 80]	0	0	0	0	0	0	0	0	0	0	0	2 (strong activity comprising more than 50% of the cells)	0	0	0	2 (strong activity comprising more than 50% of the cells)	0	0	0	0	Hoechst 33342 nuclear staining score, PBLs ([1]; conc 0.1): 0; Hoechst 33342 nuclear staining score, PBLs ([1]; conc 0.3): 0; Hoechst 33342 nuclear staining score, PBLs ([1]; conc 1): 0; Hoechst 33342 nuclear staining score, PBLs ([1]; conc 3): 0; IC50 [2]: > 1 µM; IC50 [3]: > 1 µM; IC50 [4]: > 1 µM; IC50 [5]: > 1 µM
